Drawing on article doi:10.1101/108654v1 (biorxiv, 2017), this text covers CC50, GI50 and inhibition for six compounds.

A word on the CC50: it is the concentration at which the toxic effect on the cells reaches its halfway point. A low value points to greater toxicity to the cells. As a reminder, the inhibition is how much of the control response was suppressed.

One series can be described thus: in vitro. Particulars: human, mrc5 cells.
The test system of the next series is HepG2. Kind of series: cells. Set-up: species or system human cancer cell lines. Particulars: Homo sapiens, HepG2, 48 h, read-out: HepG2.
The subject of a further series is MCF7. Kind of series: cells. Also noted: species or system human cancer cell lines. The conditions noted are these: Homo sapiens, MCF7, 48 h, read-out: MCF7.
Another series deals with MDA MB-231. Briefly: cells. Set-up: species or system human cancer cell lines. Particulars: Homo sapiens, MDA-MB-231, 48 h, read-out: MDA MB-231.
In the next series the test system is DU145. Briefly: cells. Set-up: species or system human cancer cell lines. Particulars: Homo sapiens, DU-145, 48 h, read-out: DU145.
Another series concerns SKOV3. Kind of series: cells. Also noted: species or system human cancer cell lines. The conditions noted are these: Homo sapiens, SK-OV-3, 48 h, read-out: SKOV3.
For a further series, the target named is porcine brain tubulin (Sus scrofa, UniProt P02550+P02554). Kind of series: fluorescence-based tubulin polymerization assay. It counts as biochemical. The conditions noted are these: read-out: % inhibition at 3 μM.
Chain of porcine brain tubulin (P02550 whole entry): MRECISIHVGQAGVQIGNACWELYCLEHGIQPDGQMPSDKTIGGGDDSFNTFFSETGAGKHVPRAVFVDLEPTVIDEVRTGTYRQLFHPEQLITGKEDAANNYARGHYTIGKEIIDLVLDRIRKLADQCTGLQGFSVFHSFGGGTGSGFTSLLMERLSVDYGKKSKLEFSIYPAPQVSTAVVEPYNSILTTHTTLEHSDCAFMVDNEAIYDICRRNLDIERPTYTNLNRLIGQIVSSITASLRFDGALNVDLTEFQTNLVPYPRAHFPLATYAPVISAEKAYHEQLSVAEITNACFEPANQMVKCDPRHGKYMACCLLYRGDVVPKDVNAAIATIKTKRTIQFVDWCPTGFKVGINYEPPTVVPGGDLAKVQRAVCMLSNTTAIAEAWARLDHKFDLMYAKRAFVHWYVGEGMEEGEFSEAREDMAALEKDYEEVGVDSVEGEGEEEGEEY
Chain of porcine brain tubulin (P02554 whole entry): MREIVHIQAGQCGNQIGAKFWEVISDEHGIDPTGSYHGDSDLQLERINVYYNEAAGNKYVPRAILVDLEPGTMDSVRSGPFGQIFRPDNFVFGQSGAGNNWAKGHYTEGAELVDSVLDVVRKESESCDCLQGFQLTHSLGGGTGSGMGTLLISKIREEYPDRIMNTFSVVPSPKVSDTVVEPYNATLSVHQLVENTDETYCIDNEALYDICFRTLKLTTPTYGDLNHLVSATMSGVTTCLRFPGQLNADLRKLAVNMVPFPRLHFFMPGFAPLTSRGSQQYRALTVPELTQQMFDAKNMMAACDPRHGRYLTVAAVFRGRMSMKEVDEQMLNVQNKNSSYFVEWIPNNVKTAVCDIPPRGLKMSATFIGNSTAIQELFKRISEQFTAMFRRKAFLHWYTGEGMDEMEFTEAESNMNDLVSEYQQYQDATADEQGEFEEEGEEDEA

`Clc1ccc2nc(Cl)nc(-c3ccccc3Cl)c2c1` [ATS-1]: in “in vitro”, the CC50 at 48 h worked out at 136 ± 1.63 µM. Moreover, the GI50 with HepG2 is over 10 µM; in the series with MCF7, over 10 µM; with MDA MB-231 it was over 10 µM; in the series on DU145, over 10 µM; in the series on SKOV3, 0.15 ± 0.05 µM.
As to `Clc1ccc2nc(NN=Cc3c(Cl)cccc3Cl)nc(-c3ccccc3)c2c1` [ATS-3], in the series “in vitro”, the CC50 at 48 h worked out at 159 ± 1.06 µM. For the same compound, the GI50 in the series on HepG2 is over 10 µM; with MCF7 it was over 10 µM; with MDA MB-231 it was 8.84 ± 0.12 µM; with DU145, 2.27 ± 0.37 µM; with SKOV3, 0.47 ± 0.06 µM.
`O=[N+]([O-])c1ccc(C=NNc2nc(-c3ccccc3)c3cc(Cl)ccc3n2)o1` [ATS-4] showed a CC50 at 48 h in the series “in vitro” of 162 ± 1.82 µM. Also, the GI50 in the series with HepG2 was 1.35 ± 0.45 µM; in the series with MCF7, over 10 µM; in the series on MDA MB-231, over 10 µM; in the series with DU145, 0.81 ± 0.07 µM; in the series on SKOV3 it was 2.75 ± 0.35 µM.
On to `Clc1ccc2nc(Nc3c(Cl)cccc3Cl)nc(-c3ccccc3)c2c1` [ATS-7], for which the midpoint of cytotoxicity in “in vitro”, the CC50 at 48 h, lay at 141 ± 1.41 µM. Further, the GI50 is over 10 µM with HepG2; 0.6 ± 0.07 µM with MCF7; over 10 µM with MDA MB-231; over 10 µM in the series with DU145; 10.3 ± 0.62 µM with SKOV3. Also, the inhibition at 3 µM at porcine brain tubulin was 59%.
Regarding `COc1cccc2c1C(=O)c1c(O)c3c(c(O)c1C2=O)C[C@@](O)(C(=O)CO)C[C@@H]3O[C@H]1C[C@H](N)[C@H](O)[C@H](C)O1` [Doxorubicin], the GI50 in the series with HepG2 was under 0.1 µM; in the series with MCF7 it was under 0.1 µM; in the series with MDA MB-231, under 0.1 µM; in the series with DU145 it was under 0.1 µM; in the series on SKOV3, 1.17 ± 0.52 µM.
`COC(=O)Nc1nc2ccc(C(=O)c3cccs3)cc2[nH]1` [nocodazole] had a cytotoxic concentration (CC50) at 48 h in “in vitro” of 129 ± 1.48 µM. Also, the GI50 is 7.06 ± 0.54 µM with HepG2; under 0.1 µM in the series with MCF7; 2.8 ± 0.51 µM with MDA MB-231; 0.17 ± 0.07 µM in the series on DU145; under 0.1 µM with SKOV3.
